Measured values as given in patent US12245597B2 (priority 2017, dated 2025).

Key:
CLas [1] = format: in vivo, Candidatus Liberibacter asiaticus in citrus plants; conditions: after twenty-eight days; soil drench, 10 Brix; p<0.05
CLas [2] = format: in vivo, Candidatus Liberibacter asiaticus in citrus plants; conditions: forty-eight hours after treatment; soil drench
L. crescens = format: cell-based, Liberibacter crescens; conditions: control, at each tested level

SMILES | number of copies of CLas genes, change from the initial value (CLas [1]) | change in PMA titer (positive = reduction in live bacteria) (CLas [2]) | inhibition (L. crescens) [%]
[H]/N=C(/N)N[C@H]1[C@H](O)[C@@H](O)[C@H](O[C@@H]2O[C@@H](C)[C@](O)(C=O)[C@H]2O[C@@H]2O[C@@H](CO)[C@H](O)[C@@H](O)[C@@H]2NC)[C@@H](N/C(N)=N\[H])[C@@H]1O [Streptomycin] | significant reduction | positive values | –
CN(C)[C@@H]1C(=O)C(C(N)=O)=C(O)[C@@]2(O)C(=O)C3=C(O)c4c(O)cccc4[C@@](C)(O)[C@H]3[C@H](O)[C@@H]12 [Oxytetracyclin] | – | – | 100
